Publication PMC5357792, “Identification of mangiferin as a potential Glucokinase activator by structure-based virtual ligand screening” (Scientific Reports, 2017)

Assays:
Glucokinase (GK) [1] = biological target: T1, Glucokinase (GK) (Homo sapiens, UniProt P35557); test: microscale thermophoresis with labelled recombinant GK; type: binding; conditions: read-out: Dissociation constant with GK / Kd
T1 construct: gene GCK; full-length human glucokinase (GenBank: BC001890.1), C-terminally hexa-histidine tagged
T1 sequence (P35557 1-465): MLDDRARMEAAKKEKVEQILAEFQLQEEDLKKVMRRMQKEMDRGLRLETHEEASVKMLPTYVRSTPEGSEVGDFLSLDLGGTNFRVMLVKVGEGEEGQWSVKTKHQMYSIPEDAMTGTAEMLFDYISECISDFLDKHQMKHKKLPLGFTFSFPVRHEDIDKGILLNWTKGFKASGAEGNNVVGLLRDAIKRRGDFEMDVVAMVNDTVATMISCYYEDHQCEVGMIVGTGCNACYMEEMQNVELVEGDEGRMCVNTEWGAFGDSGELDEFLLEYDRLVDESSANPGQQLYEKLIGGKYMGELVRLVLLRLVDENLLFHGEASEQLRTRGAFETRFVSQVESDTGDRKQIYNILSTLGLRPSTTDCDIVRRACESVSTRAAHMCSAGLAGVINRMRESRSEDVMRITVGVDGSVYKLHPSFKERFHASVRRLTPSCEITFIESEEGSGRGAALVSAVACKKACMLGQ

Glucokinase (GK) [2] = biological target: T1, Glucokinase (GK); test: biochemical; parameters: G6PDH-coupled spectrophotometric glucokinase activity, NADPH absorbance at 340 nm, 10 mM glucose, 37 °C; conditions: for remaining activity at 50 µM: untreated GK = 100%, read-out: % of control remaining
Method: The in vitro efficacy of twelve compounds was assessed in two separate steps: a SC50 assay to evaluate the potency of each compound at a unified compound concentration of 50 μM. Then, we seek to obtain the values of EC50 and kinetic parameters Ka, Vmax of promising compounds, according to a reported method with minor modifications. Briefly, Twelve compounds unified in the same concentration of 50 μM were assayed in a 96-well plate with a final reaction volume of 100 μl. The reaction mixture consisted of 25 mM Hepes (pH 7.5), 10 mM glucose, 1 mM ATP, 4 U/ml G6PDH (Sigma-Aldrich Co. LLC., St. Louis, MO, USA), 1 mM NADP, 2.5 mM MgCl, 50 mM KCl, 2 mM DTT, […] recombinant human glucokinase and test compounds. The whole reaction mixtures were kept under 37 °C for 20 minutes. The increase in the rate of absorbance of NADPH generated in the reactions was monitored kinetically at 340 nm. The values were calculated by comparing with untreated GK. This term is called the efficacy of stimulatory concentration (SC50). Then, the EC50 of promising candidates were determined in the presence of various fixed concentrations of compound 7 (2–300 μM). Values were calculated by fitting enzymatic rates to the Hill equation by using GraphPad Prism 5.01. In order to further investigate the activation effect of the twelve compounds on GK enzymatic activity, the recombinant GK protein had been successfully obtained by genetic engineering method. Evaluation of the twelve hits on enzymatic activity was assessed spectrometrically by a coupled reaction with glucose-6-phosphate dehydrogenase. […] The activation percentage was the GK enzyme activity in each group compared to that of the blank control group. Each compound was assayed triply. The value presents in a column as the mean ± SD (n = 3). *P < 0.05, **P < 0.01, compared to the blank control group.

Glucokinase (GK) [3] = biological target: T1, Glucokinase (GK); test: microscale thermophoresis with labelled recombinant GK; also coupled G6PDH enzyme activation assay (EC50 ca. […]); type: binding; conditions: read-out: Dissociation constant with GK / Kd

| Compound | remaining activity at 50 µM (Glucokinase (GK) [2]) | other results |
| --- | --- | --- |
| O=C(Nc1ncc(SCCN2CCCC2)s1)[C@]1(c2ccc(S(=O)(=O)C3CC3)cc2)C[C@H]1C1CCCCC1 [LY2608204] | – | Kd (Glucokinase (GK) [1]): 600 ± 36.1 µM |
| Oc1ccc(Nc2ncnc3sccc23)cc1CN1CCOCC1 [compound 4, 4] | 37.8 ± 12% | – |
| Cc1sc2ncnc(SCC(=O)Nc3c[nH]ccc3=O)c2c1C [compound 5, 5] | 87.6 ± 5.67% | – |
| O=c1c2cc(O)c(O)cc2oc2cc(O)c([C@@H]3O[C@H](CO)[C@@H](O)[C@H](O)[C@H]3O)c(O)c12 [compound 7, mangiferin] | 126 ± 2.83% | EC50 (Glucokinase (GK) [2]): 156 µM; Kd (Glucokinase (GK) [3]): 472 ± 20.5 µM |
| CC(O)CNc1nc2ccccc2n1Cc1nc(N)nc(N(C)C)n1 (centres unmarked) [compound 8, 8] | 92 ± 0.96% | – |

More lines, main results first:

| remaining activity at 50 µM (Glucokinase (GK) [2]) | Compound | other results |
| --- | --- | --- |
| 86.1 ± 5.68% | O=C(Nc1nc(-c2c[nH]c3ccccc23)cs1)c1cnccn1 [compound 1, 1] | – |
| 86.5 ± 5.71% | NC(=O)c1coc(-c2csc(NC(=O)c3ccc(Cl)cc3)n2)c1 [compound 2, 2] | – |
| 46.7 ± 1.21% | Cc1nc(S)sc1CC(=O)Nc1c[nH]ccc1=O [compound 3, 3] | – |
| 90 ± 3.88% | O=C(NCC(c1cccs1)c1c[nH]c2ccccc12)c1ccccn1 (centres unmarked) [compound 6, 6] | – |
| 82.4 ± 6.72% | Cn1ccc(NC(=O)N(Cc2ccccc2)CC(O)c2ccco2)n1 (centres unmarked) [compound 9, 9] | – |
| 94.3 ± 1.49% | O=C1NCC(c2ccc(Cl)cc2)Cc2[nH]c(-c3ncc[nH]3)nc21 (centres unmarked) [compound 10, 10] | – |
| 75.9 ± 6.72% | COc1ccccc1C(=O)Nc1cccc(NC(=O)c2ncc[nH]2)c1 [compound 11, 11] | – |
